Five compounds from ChEMBL document CHEMBL1201862, “PubChem BioAssay data set” (2004) can be followed below.

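Compound exposure: 48 hours, 5 concentrations, 96-well plates. At the GI50, growth is halved.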 The source made the active and inactive calls. Cut-off read from the data, not from the text of the source: active = GI50 up to about 1.1 µM and inactive = higher.

What all share (test): growth of human tumour cells (NCI), 48 h
For assay [1], the system named is TK-10.
Assay [2] concerns NCI-H460.
The test system of assay [3] is IGROV-1.
Assay [4] concerns Malme-3M.
The test system of assay [5] is SN12C.
In assay [6] the test system is SNB-19.
The subject of assay [7] is HCT-15.
Assay [8] has as its system SF-295.
The subject of assay [9] is OVCAR-3.
Assay [10] deals with EKVX.
Assay [11] has as its system 786-0.
For assay [12], the system named is OVCAR-5.
Assay [13] has as its system CCRF-CEM.
The test system of assay [14] is HT-29.
The test system of assay [15] is UO-31.
Assay [16] deals with HCC 2998.
For assay [17], the system named is HCT-116.
Assay [18] has as its system RXF 393.

Take `CCOc1ccc(NC2=NC(=O)C(CC(=O)Nc3ccc(Cl)cc3Cl)S2)cc1` (centres undefined): the GI50 in assay [1], in [2], in assay [3], in assay [4], in [5] and in [6] was > 100 µM (inactive) each time. In addition, the GI50 in [7] is greater than 100 µM; in assay [8] it was > 100 µM (inactive); in [9] it was > 100 µM (inactive); in assay [10] it was > 100 µM (inactive); in assay [11], > 100 µM (inactive); in assay [12], > 100 µM (inactive). For the same compound, the GI50 in [13] was 21.6 µM (inactive); in [14], > 100 µM (inactive); in assay [15], > 100 µM (inactive); in assay [16], > 100 µM (inactive).

Consider `C[C@@H]1O[C@@H](O[C@H]2[C@H](Oc3cc(O)c4c(=O)cc(-c5ccc(O)cc5)oc4c3)O[C@H](CO)[C@@H](O)[C@@H]2O)[C@H](O)[C@H](O)[C@H]1O` [RHOIFOLIN], for which the GI50 in [1], in [17], in assay [2], in [3], in [4] and in assay [5] was > 100 µM (inactive) in each case. The GI50 in assay [6] was > 100 µM (inactive); in assay [7], greater than 100 µM; in assay [8], > 100 µM (inactive); in assay [9] it was > 100 µM (inactive); in [10], > 100 µM (inactive); in assay [11], > 100 µM (inactive). Moreover, the GI50 in [12], in assay [13], in [14] and in assay [15] was > 100 µM (inactive) throughout.

In the case of `COC(=O)C(=O)C(C(=O)C(=O)Nc1ccc(Cl)cc1Cl)c1nc2ccc(Cl)cc2nc1O` (centres undefined), the GI50 is 69.8 µM (inactive) in assay [1]; > 100 µM (inactive) in assay [17]; > 100 µM (inactive) in assay [2]; 58.7 µM (inactive) in [3]; > 100 µM (inactive) in [5]; > 100 µM (inactive) in assay [6]. Also, the GI50 in [7] is greater than 100 µM; in assay [8], > 100 µM (inactive); in assay [9] it was > 100 µM (inactive); in [10], 17.1 µM (inactive); in assay [11] it was > 100 µM (inactive); in [12], > 100 µM (inactive). Besides, the GI50 is 69.7 µM (inactive) in assay [13], > 100 µM (inactive) in [14], 28.4 µM (inactive) in [15] and > 100 µM (inactive) in assay [16].

Turning to `O=C(O)CN(c1ccccc1)S(=O)(=O)c1ccc(Cl)cc1`, the GI50 in assay [1], in assay [2], in assay [3], in assay [4], in [5] and in [6] was > 100 µM (inactive) each time. Also, the GI50 is greater than 100 µM in [7]; > 100 µM (inactive) in [10]; > 100 µM (inactive) in assay [11]; > 100 µM (inactive) in assay [12]; > 100 µM (inactive) in [13]; > 100 µM (inactive) in [14]. The GI50 in assay [15] and in assay [18] was > 100 µM (inactive) each time.

As to `CN(C)c1snc2c1c(=O)n(C)c(=O)n2C`, the GI50 in assay [1], in [17], in assay [2], in assay [3], in [4] and in [5] was > 100 µM (inactive) each time. Moreover, the GI50 in assay [6] is > 100 µM (inactive); in assay [7] it was greater than 100 µM; in assay [8] it was > 100 µM (inactive); in [9], > 100 µM (inactive); in [10] it was 40.1 µM (inactive); in assay [11], > 100 µM (inactive). The GI50 in assay [12], in [13], in [14], in [15] and in assay [16] was > 100 µM (inactive) each time.
